# Measurements taken from ChEMBL document CHEMBL4507316 (2021).
# Columns and labels:
# [1] = molecular target: Tyrosine-protein kinase BTK (Homo sapiens) (UniProt Q06187); assay: BTK ProQinase selectivity panel; details: Compound concentration 1.0 uM
# [2] = molecular target: NUAK family SNF1-like kinase 1 (Homo sapiens) (UniProt O60285); assay: ARK5 ProQinase selectivity panel; details: Compound concentration 1.0 uM
# [3] = molecular target: STE20/SPS1-related proline-alanine-rich protein kinase (Homo sapiens) (UniProt Q9UEW8); assay: STK39 ProQinase selectivity panel; details: Compound concentration 1.0 uM
# [4] = molecular target: Homeodomain-interacting protein kinase 4 (Homo sapiens) (UniProt Q8NE63); assay: HIPK4 ProQinase selectivity panel; details: Compound concentration 1.0 uM
# [5] = molecular target: Inhibitor of nuclear factor kappa-B kinase subunit alpha (Homo sapiens) (UniProt O15111); assay: IKK-alpha ProQinase selectivity panel; details: Compound concentration 1.0 uM
# Sequence of Inhibitor of nuclear factor kappa-B kinase subunit alpha (Homo sapiens) (O15111 whole entry): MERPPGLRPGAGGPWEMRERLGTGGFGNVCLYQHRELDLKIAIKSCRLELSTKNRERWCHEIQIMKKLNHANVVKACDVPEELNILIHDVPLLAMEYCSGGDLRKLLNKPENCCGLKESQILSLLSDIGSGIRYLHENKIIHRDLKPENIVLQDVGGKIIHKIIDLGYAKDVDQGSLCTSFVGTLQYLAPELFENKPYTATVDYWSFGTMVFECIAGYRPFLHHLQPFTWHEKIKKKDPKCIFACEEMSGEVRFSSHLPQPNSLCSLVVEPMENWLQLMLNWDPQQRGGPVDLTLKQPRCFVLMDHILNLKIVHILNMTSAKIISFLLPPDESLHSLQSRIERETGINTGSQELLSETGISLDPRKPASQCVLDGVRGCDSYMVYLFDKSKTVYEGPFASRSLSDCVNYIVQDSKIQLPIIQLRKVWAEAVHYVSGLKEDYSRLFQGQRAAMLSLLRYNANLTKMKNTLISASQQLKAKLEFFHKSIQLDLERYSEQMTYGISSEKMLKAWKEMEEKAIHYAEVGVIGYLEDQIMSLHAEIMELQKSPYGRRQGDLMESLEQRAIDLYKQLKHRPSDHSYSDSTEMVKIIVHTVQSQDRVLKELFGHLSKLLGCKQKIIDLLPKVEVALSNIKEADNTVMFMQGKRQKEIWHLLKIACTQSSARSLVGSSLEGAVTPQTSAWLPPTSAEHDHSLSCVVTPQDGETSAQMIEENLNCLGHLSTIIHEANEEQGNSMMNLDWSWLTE
# [6] = system: Hepatocyte growth factor receptor (Homo sapiens), P08581 [Y1235D]; assay: MET Y1235D ProQinase selectivity panel; details: Compound concentration 1.0 uM
# [7] = molecular target: Alpha-1D adrenergic receptor (Homo sapiens) (UniProt P25100); details: Compound concentration 10.0 uM
# Sequence of Alpha-1D adrenergic receptor (Homo sapiens) (P25100 whole entry): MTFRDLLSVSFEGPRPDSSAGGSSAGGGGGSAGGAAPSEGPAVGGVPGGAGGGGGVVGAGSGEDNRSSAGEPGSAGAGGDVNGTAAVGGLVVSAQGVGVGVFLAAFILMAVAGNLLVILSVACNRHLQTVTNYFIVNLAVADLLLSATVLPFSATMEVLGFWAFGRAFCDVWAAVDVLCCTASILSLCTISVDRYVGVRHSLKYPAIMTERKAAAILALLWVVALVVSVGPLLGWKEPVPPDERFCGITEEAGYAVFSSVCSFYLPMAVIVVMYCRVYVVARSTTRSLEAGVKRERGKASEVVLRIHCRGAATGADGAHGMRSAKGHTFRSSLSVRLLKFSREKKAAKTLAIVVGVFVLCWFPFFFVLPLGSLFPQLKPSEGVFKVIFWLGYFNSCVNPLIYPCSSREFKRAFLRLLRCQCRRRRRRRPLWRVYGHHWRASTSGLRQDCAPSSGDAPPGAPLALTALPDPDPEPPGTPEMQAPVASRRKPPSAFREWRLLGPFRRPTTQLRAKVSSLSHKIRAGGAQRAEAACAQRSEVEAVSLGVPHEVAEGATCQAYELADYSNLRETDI
# [8] = system: Hepatocyte growth factor receptor (Homo sapiens), P08581 [M1250T]; assay: MET M1250T ProQinase selectivity panel; details: Compound concentration 1.0 uM
# [9] = molecular target: Serine/threonine-protein kinase D2 (Homo sapiens) (UniProt Q9BZL6); assay: PRKD2 ProQinase selectivity panel; details: Compound concentration 1.0 uM
# [10] = molecular target: Wee1-like protein kinase (Homo sapiens) (UniProt P30291); assay: WEE1 ProQinase selectivity panel; details: Compound concentration 1.0 uM
# [11] = molecular target: Protein kinase C beta type (Homo sapiens) (UniProt P05771); assay: PKC-beta1 ProQinase selectivity panel; details: Compound concentration 1.0 uM
# Sequence of Protein kinase C beta type (Homo sapiens) (P05771 2-671 limits assumed): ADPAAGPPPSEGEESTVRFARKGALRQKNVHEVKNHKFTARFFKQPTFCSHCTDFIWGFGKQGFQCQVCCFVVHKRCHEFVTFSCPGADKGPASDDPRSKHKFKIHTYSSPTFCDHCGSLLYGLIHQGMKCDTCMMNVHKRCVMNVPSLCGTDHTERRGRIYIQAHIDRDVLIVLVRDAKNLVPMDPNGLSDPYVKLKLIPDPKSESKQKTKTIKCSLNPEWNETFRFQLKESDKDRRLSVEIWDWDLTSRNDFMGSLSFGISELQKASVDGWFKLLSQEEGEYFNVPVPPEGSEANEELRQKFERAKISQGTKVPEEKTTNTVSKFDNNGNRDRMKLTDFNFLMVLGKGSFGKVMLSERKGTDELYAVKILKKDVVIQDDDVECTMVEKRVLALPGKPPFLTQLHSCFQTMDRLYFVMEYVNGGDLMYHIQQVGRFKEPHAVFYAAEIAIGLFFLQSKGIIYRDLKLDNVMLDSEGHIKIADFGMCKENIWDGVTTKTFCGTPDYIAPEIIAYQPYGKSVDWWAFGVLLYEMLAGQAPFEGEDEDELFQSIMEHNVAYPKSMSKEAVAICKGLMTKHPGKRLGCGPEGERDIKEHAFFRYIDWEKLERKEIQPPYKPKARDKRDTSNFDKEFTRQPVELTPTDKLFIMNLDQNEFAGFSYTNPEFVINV
# [12] = molecular target: LIM domain kinase 1 (Homo sapiens) (UniProt P53667); assay: LIMK1 ProQinase selectivity panel; details: Compound concentration 1.0 uM
# [13] = molecular target: Alpha-2C adrenergic receptor (Homo sapiens) (UniProt P18825); details: Compound concentration 10.0 uM
# [14] = molecular target: ALK tyrosine kinase receptor (Homo sapiens) (UniProt Q9UM73); assay: ALK ProQinase selectivity panel; details: Compound concentration 1.0 uM
# [15] = molecular target: Muscarinic acetylcholine receptor M1 (Homo sapiens) (UniProt P11229); details: Compound concentration 10.0 uM
# [16] = molecular target: 5'-AMP-activated protein kinase catalytic subunit alpha-1 (Homo sapiens) (UniProt Q13131); assay: AMPK-alpha1 ProQinase selectivity panel; details: Compound concentration 1.0 uM
# [17] = molecular target: Rho-associated protein kinase 2 (Homo sapiens) (UniProt O75116); assay: ROCK2 ProQinase selectivity panel; details: Compound concentration 1.0 uM
# [18] = molecular target: Ephrin type-A receptor 3 (Homo sapiens) (UniProt P29320); assay: EPHA3 ProQinase selectivity panel; details: Compound concentration 1.0 uM
# [19] = molecular target: Hepatocyte growth factor receptor (Homo sapiens) (UniProt P08581); assay: MET wt ProQinase selectivity panel; details: Compound concentration 1.0 uM
# [20] = molecular target: BDNF/NT-3 growth factors receptor (Homo sapiens) (UniProt Q16620); assay: TRK-B ProQinase selectivity panel; details: Compound concentration 1.0 uM
# [21] = molecular target: Tyrosine-protein kinase JAK1 (Homo sapiens) (UniProt P23458); assay: JAK1 ProQinase selectivity panel; details: Compound concentration 1.0 uM
# [22] = molecular target: Phosphorylase b kinase gamma catalytic chain, liver/testis isoform (Homo sapiens) (UniProt P15735); assay: PHKG2 ProQinase selectivity panel; details: Compound concentration 1.0 uM
# Sequence of Phosphorylase b kinase gamma catalytic chain, liver/testis isoform (Homo sapiens) (P15735 whole entry, looked up, canonical isoform): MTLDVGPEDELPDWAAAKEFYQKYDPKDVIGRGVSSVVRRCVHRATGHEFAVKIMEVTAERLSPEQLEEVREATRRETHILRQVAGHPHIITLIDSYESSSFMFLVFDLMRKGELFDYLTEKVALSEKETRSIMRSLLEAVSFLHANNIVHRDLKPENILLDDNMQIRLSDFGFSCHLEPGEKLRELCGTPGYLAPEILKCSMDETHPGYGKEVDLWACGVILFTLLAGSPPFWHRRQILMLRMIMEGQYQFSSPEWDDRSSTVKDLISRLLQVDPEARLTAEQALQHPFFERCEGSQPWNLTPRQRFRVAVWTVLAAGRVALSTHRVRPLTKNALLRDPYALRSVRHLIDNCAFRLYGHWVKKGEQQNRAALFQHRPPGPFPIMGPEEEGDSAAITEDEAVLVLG
# [23] = system: Epidermal growth factor receptor (Homo sapiens), P00533 [G719C]; assay: EGF-R G719C ProQinase selectivity panel; details: Compound concentration 1.0 uM
# [24] = molecular target: 3-phosphoinositide-dependent protein kinase 1 (Homo sapiens) (UniProt O15530); assay: PDK1 ProQinase selectivity panel; details: Compound concentration 1.0 uM
# Sequence of 3-phosphoinositide-dependent protein kinase 1 (Homo sapiens) (O15530 whole entry, looked up, canonical isoform): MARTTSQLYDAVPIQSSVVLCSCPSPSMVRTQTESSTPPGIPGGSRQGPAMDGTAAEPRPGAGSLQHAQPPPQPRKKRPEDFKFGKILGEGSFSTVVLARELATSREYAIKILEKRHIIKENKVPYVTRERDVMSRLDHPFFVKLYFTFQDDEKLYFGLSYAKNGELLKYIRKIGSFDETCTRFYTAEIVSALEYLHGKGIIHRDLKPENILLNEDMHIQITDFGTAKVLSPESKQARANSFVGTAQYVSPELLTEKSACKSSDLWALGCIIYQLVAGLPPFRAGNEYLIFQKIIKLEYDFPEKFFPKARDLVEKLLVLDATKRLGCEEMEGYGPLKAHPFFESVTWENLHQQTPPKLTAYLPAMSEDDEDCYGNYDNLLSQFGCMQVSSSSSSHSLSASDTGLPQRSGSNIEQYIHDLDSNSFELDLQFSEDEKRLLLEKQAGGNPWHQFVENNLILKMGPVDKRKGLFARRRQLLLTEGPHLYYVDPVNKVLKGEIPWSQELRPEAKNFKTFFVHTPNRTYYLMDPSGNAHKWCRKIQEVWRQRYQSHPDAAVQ
# [25] = molecular target: Casein kinase I isoform gamma-1 (Homo sapiens) (UniProt Q9HCP0); assay: CK1-gamma1 ProQinase selectivity panel; details: Compound concentration 1.0 uM
# [26] = molecular target: D(2) dopamine receptor (Homo sapiens) (UniProt P14416); details: Compound concentration 10.0 uM
# [27] = molecular target: Calcium/calmodulin-dependent protein kinase type II subunit alpha (Homo sapiens) (UniProt Q9UQM7); assay: CAMK2A ProQinase selectivity panel; details: Compound concentration 1.0 uM
# Sequence of Calcium/calmodulin-dependent protein kinase type II subunit alpha (Homo sapiens) (Q9UQM7 whole entry): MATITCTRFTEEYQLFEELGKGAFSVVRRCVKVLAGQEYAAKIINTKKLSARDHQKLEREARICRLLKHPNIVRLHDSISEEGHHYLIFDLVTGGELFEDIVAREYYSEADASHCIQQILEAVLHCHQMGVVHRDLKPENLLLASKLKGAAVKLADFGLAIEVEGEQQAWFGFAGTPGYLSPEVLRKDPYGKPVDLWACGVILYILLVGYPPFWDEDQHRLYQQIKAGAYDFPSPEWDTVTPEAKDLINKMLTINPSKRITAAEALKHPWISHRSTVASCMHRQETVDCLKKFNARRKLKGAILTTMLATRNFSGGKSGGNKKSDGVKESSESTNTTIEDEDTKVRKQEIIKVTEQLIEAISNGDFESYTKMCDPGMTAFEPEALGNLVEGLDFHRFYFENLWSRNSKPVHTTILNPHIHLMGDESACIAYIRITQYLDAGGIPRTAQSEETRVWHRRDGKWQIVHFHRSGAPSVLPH
# [28] = molecular target: Myosin light chain kinase, smooth muscle (Homo sapiens) (UniProt Q15746); assay: MYLK ProQinase selectivity panel; details: Compound concentration 1.0 uM
# [29] = molecular target: Mitogen-activated protein kinase kinase kinase kinase 5 (Homo sapiens) (UniProt Q9Y4K4); assay: MAP4K5 ProQinase selectivity panel; details: Compound concentration 1.0 uM
# [30] = molecular target: Activated CDC42 kinase 1 (Homo sapiens) (UniProt Q07912); assay: ACK1 ProQinase selectivity panel; details: Compound concentration 1.0 uM
# [31] = molecular target: Dual specificity tyrosine-phosphorylation-regulated kinase 1A (Homo sapiens) (UniProt Q13627); assay: DYRK1A ProQinase selectivity panel; details: Compound concentration 1.0 uM
# [32] = molecular target: Vascular endothelial growth factor receptor 1 (Homo sapiens) (UniProt P17948); assay: VEGF-R1 ProQinase selectivity panel; details: Compound concentration 1.0 uM
# [33] = system: RAF proto-oncogene serine/threonine-protein kinase (Homo sapiens), P04049 [Y340D,Y341D]; assay: RAF1 Y340D/Y341D ProQinase selectivity panel; details: Compound concentration 1.0 uM
# [34] = molecular target: Ribosomal protein S6 kinase alpha-6 (Homo sapiens) (UniProt Q9UK32); assay: RPS6KA6 ProQinase selectivity panel; details: Compound concentration 1.0 uM
# [35] = molecular target: MAP kinase-interacting serine/threonine-protein kinase 2 (Homo sapiens) (UniProt Q9HBH9); assay: MKNK2 ProQinase selectivity panel; details: Compound concentration 1.0 uM
# [36] = molecular target: Serine/threonine-protein kinase TAO3 (Homo sapiens) (UniProt Q9H2K8); assay: TAOK3 ProQinase selectivity panel; details: Compound concentration 1.0 uM
# Sequence of Serine/threonine-protein kinase TAO3 (Homo sapiens) (Q9H2K8 whole entry): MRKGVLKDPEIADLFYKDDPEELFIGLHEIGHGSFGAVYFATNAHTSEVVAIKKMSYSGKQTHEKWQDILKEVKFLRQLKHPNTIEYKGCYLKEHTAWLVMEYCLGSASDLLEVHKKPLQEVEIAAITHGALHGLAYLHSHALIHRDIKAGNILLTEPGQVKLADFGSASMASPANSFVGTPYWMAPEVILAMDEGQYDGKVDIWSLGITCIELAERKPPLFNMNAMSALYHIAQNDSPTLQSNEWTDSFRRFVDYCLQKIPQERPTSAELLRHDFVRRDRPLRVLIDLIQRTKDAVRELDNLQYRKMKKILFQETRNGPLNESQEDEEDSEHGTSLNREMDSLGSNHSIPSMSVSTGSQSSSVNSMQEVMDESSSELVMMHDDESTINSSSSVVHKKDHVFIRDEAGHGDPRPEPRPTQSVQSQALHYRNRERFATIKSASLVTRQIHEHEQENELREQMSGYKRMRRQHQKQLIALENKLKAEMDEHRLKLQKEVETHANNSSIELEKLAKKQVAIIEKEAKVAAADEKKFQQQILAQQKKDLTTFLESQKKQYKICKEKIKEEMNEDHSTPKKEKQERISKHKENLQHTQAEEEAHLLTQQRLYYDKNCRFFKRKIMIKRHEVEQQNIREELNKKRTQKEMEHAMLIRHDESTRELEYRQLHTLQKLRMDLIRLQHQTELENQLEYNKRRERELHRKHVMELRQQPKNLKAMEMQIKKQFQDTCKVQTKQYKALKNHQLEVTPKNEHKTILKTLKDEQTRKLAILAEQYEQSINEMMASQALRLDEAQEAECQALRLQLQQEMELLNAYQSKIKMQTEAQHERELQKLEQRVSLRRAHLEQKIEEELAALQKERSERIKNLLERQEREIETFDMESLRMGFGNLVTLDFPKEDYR
# [37] = molecular target: D(3) dopamine receptor (Homo sapiens) (UniProt P35462); details: Compound concentration 10.0 uM
# [38] = molecular target: Dual specificity protein kinase TTK (Homo sapiens) (UniProt P33981); assay: TTK ProQinase selectivity panel; details: Compound concentration 1.0 uM
# [39] = molecular target: Platelet-derived growth factor receptor beta (Homo sapiens) (UniProt P09619); assay: PDGFR-beta ProQinase selectivity panel; details: Compound concentration 1.0 uM
# [40] = molecular target: Dual specificity protein kinase CLK3 (Homo sapiens) (UniProt P49761); assay: CLK3 ProQinase selectivity panel; details: Compound concentration 1.0 uM
# [41] = molecular target: DNA-dependent protein kinase catalytic subunit (Homo sapiens) (UniProt P78527); assay: DNA-PK ProQinase selectivity panel; details: Compound concentration 1.0 uM
# [42] = molecular target: Serine/threonine-protein kinase Nek3 (Homo sapiens) (UniProt P51956); assay: NEK3 ProQinase selectivity panel; details: Compound concentration 1.0 uM
# [43] = system: Fibroblast growth factor receptor 1 (Homo sapiens), P11362 [V561M]; assay: FGF-R1 V561M ProQinase selectivity panel; details: Compound concentration 1.0 uM
# [44] = molecular target: Serine/threonine-protein kinase 24 (Homo sapiens) (UniProt Q9Y6E0); assay: MST3 ProQinase selectivity panel; details: Compound concentration 1.0 uM
# [45] = molecular target: Ephrin type-A receptor 5 (Homo sapiens) (UniProt P54756); assay: EPHA5 ProQinase selectivity panel; details: Compound concentration 1.0 uM
# [46] = system: Proto-oncogene tyrosine-protein kinase receptor Ret (Homo sapiens), P07949 [V804L]; assay: RET V804L ProQinase selectivity panel; details: Compound concentration 1.0 uM
# [47] = molecular target: Sodium-dependent noradrenaline transporter (Homo sapiens) (UniProt P23975); details: Compound concentration 10.0 uM
# [48] = molecular target: Sodium-dependent dopamine transporter (Homo sapiens, UniProt Q01959); assay: GPCRScan assay: inhibition of DAT; design: radioligand conc. used [nm] 3.6 – 16.0, parental cells stable HEK
# Sequence of Sodium-dependent dopamine transporter (Q01959 whole entry): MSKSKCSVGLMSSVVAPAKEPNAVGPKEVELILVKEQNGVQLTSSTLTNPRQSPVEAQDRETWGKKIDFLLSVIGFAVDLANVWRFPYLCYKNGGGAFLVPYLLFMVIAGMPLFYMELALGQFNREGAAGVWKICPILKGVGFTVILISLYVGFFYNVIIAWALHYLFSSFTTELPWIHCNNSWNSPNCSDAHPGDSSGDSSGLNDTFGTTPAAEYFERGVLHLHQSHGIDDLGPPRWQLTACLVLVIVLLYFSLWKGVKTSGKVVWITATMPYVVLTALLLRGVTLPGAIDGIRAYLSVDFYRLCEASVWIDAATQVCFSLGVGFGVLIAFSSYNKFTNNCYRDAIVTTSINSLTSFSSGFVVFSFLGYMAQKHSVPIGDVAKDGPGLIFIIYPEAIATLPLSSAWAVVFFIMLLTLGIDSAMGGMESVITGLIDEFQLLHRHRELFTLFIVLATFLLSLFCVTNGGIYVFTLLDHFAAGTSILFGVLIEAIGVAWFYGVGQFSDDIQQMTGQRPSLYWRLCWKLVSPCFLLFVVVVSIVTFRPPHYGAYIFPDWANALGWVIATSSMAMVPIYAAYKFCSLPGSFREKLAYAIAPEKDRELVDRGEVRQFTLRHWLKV
compound,measurement,setting,value
O=C1c2ccc(Nc3ccc(F)cc3F)cc2CCc2ccc(OC[C@H](O)CO)cc21 [Skepinone-L],% Residual activity with Skepinone-L,[1],100%
same,% Residual activity with Skepinone-L,[2],115%
same,% Residual activity with Skepinone-L,[3],53%
same,% Residual activity with Skepinone-L,[4],116%
same,% Residual activity with Skepinone-L,[5],88%
same,% Residual activity with Skepinone-L,[6],114%
same,inhibition,[7],19.5%
same,% Residual activity with Skepinone-L,[8],100%
same,% Residual activity with Skepinone-L,[9],85%
same,% Residual activity with Skepinone-L,[10],88%
same,% Residual activity with Skepinone-L,[11],103%
same,% Residual activity with Skepinone-L,[12],109%
same,inhibition,[13],10.8%
same,% Residual activity with Skepinone-L,[14],104%
same,inhibition,[15],45.5%
same,% Residual activity with Skepinone-L,[16],84%
same,% Residual activity with Skepinone-L,[17],90%
same,% Residual activity with Skepinone-L,[18],107%
same,% Residual activity with Skepinone-L,[19],108%
same,% Residual activity with Skepinone-L,[20],77%
same,% Residual activity with Skepinone-L,[21],93%
same,% Residual activity with Skepinone-L,[22],73%
same,% Residual activity with Skepinone-L,[23],74%
same,% Residual activity with Skepinone-L,[24],97%
same,% Residual activity with Skepinone-L,[25],97%
same,inhibition,[26],7.19%
same,% Residual activity with Skepinone-L,[27],83%
same,% Residual activity with Skepinone-L,[28],78%
same,% Residual activity with Skepinone-L,[29],84%
same,% Residual activity with Skepinone-L,[30],108%
same,% Residual activity with Skepinone-L,[31],96%
same,% Residual activity with Skepinone-L,[32],113%
same,% Residual activity with Skepinone-L,[33],91%
same,% Residual activity with Skepinone-L,[34],85%
same,% Residual activity with Skepinone-L,[35],96%
same,% Residual activity with Skepinone-L,[36],102%
same,inhibition,[37],-7.71%
same,% Residual activity with Skepinone-L,[38],83%
same,% Residual activity with Skepinone-L,[39],96%
same,% Residual activity with Skepinone-L,[40],88%
same,% Residual activity with Skepinone-L,[41],82%
same,% Residual activity with Skepinone-L,[42],85%
same,% Residual activity with Skepinone-L,[43],89%
same,% Residual activity with Skepinone-L,[44],106%
same,% Residual activity with Skepinone-L,[45],132%
same,% Residual activity with Skepinone-L,[46],115%
same,inhibition,[47],29.4%
same,Ki,[48],> 10 µM
same,pKi,[48],< 5
